The values that follow come from article PMC5962679 (Frontiers in Cellular and Infection Microbiology, 2018).

Assay in all cases: biochemical
Holding throughout (assay type): binding
What all share (details): for inhibition at 250 µM: 24 h, read-out: Binding percentage

Assay [1] addresses T1, HLA-DRB1*0401 (Homo sapiens, UniProt P01903+P01911, A100K/A169T/F76Y/I96L/K127E/L162R/M171V/N62H/P40V/Q125Y/R42H/S133A/S149N/S66Y/V115G/V209L/W38E).
T1 construct: homozygous lymphoblastoid B-cell lines (International Histocompatibility Working Group); host or cells: human HLA-DRB1*0401 homozygous lymphoblastoid B-cell line

Assay [2] deals with HLA-DRB1*1302 (Homo sapiens, UniProt P01903+P01911, A100E/A169T/K41T/L162R/M171V/P40S/Q125H/Q178H/Q39Y/Q99D/R42S/S66N/T262R/V115G/W38E/Y61H).
Assay [3] addresses HLA-DRB1*1101 (Homo sapiens, UniProt P01903+P01911, A100R/A169T/A87E/I96F/K41T/L162R/M171V/P40S/Q125H/Q178H/Q39Y/Q99D/R42S/S66Y/T262R/V115G/W38E).
Assay [4] addresses HLA-DRB1*0701 (Homo sapiens, UniProt P01903+P01911, A100R/A102G/A103Q/D57E/D86V/E43K/F76Y/K127E/L162R/M171V/P40G/Q125H/Q99D/R33Q/R42Y/R54Q/S133A/S66F/T210M/V115G/Y107V/Y59L/Y89S).

By pIC50 is commonly meant the IC50 on a negative log10 scale, so that one unit is a factor of ten.

pIC50: −log10 of the molar value. Ends that are not written are not given here.

HLA-DRB1*1302, sequence (P01903 26-254 limits assumed, other chains not shown): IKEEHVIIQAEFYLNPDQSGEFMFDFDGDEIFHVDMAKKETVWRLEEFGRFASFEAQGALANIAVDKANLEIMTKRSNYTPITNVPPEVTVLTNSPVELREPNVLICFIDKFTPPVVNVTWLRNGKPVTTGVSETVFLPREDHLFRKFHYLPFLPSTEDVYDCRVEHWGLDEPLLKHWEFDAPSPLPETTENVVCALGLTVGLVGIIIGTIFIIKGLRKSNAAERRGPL
HLA-DRB1*1101, sequence (P01903 26-254 limits assumed, other chains not shown): as above

As to QTAFRKFFKKIISLG [compound 39150], the pIC50 in assay [1] is 4.47; in assay [3] it was 4.08; in assay [4] it was 4.29. The inhibition at 250 µM in assay [1] stood at 83.6%; in assay [2], 7.7%; in assay [3], 87.6%; in assay [4] it was 67.2%.
As to KLKYIFKRRKTMKKK [compound 39151], the pIC50 in assay [1] was 4.40; in assay [3], 4.29. The inhibition at 250 µM was determined as 65.3% in assay [1], 13.1% in assay [2], 78.5% in assay [3] and 36% in assay [4].
For DKSFISEANSFRNEE [compound 39149], the pIC50 in assay [1] is 4.58. For the same sequence, the inhibition at 250 µM in assay [1] turned out to be 85.8%; in assay [2], 33.5%; in assay [3] it was 36.5%; in assay [4], 42.8%.
In the case of LKPFYSLETMLMANS [compound 39147], the pIC50 in assay [1] is 5.34; in assay [2] it was 4.10; in assay [3] it was 4.64; in assay [4], 4.59. The inhibition at 250 µM worked out at 92.6% in assay [1], 63% in assay [2], 79.3% in assay [3] and 83.2% in assay [4].
Turning to NYEIYIASSSNIYLM [compound 39046], the pIC50 in assay [1] is 4.55; in assay [2], 4.53; in assay [3], 3.92; in assay [4], 4.63. In addition, the inhibition at 250 µM in assay [1] worked out at 91.8%; in assay [2], 92.8%; in assay [3] it was 82.9%; in assay [4], 91.5%.
In assay [1], TPIIVKYDNTHAKNR [compound 39048] gave a negative logarithm of the IC50 (pIC50) of 4.92. Moreover, the inhibition at 250 µM in assay [1] was found to be 90.7%; in assay [2] it was 3.3%; in assay [3] it was 16.8%; in assay [4] it was 10.5%.
On to NVRKFFLNDVSSIRH [compound 39148], for which the pIC50 in assay [1] was 4.92; in assay [2] it was 5.13; in assay [3], 4.08; in assay [4], 4.40. Further, the inhibition at 250 µM was 83% in assay [1], 94.2% in assay [2], 73.8% in assay [3] and 79.9% in assay [4].
